Columns and labels:
[1] = biological target: Platelet-derived growth factor receptor beta (Homo sapiens) (UniProt P09619); experiment: Inhibition of human PDGFRb at 18.6 nM by HotSpot assay relative to control
[2] = biological target: T1, TGF-beta receptor type-1 (Homo sapiens) (UniProt P36897); experiment: Inhibition of human ALK5 at 18.6 nM by HotSpot assay relative to control
T1 sequence (whole entry): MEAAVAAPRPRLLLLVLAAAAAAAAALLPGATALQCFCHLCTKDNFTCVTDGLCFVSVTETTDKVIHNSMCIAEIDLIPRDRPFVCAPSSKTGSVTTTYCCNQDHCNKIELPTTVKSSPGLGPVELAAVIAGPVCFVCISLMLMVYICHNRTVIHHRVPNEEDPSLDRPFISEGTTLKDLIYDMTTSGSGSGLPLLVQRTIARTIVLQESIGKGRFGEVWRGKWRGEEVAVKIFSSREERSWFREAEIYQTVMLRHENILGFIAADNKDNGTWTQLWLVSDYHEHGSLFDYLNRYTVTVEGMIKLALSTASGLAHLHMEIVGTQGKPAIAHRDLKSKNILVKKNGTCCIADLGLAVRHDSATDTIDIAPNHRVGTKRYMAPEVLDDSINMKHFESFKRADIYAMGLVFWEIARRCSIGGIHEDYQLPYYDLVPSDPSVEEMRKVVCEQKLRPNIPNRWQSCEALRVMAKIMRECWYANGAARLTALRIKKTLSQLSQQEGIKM

[3] = biological target: Cyclin-dependent kinase 1/cyclin B1 (Homo sapiens) (UniProt P06493+P14635); experiment: Inhibition of human CDK1/cyclin B at 18.6 nM by HotSpot assay relative to control; assay type: protein-complex assay
[4] = biological target: Mast/stem cell growth factor receptor Kit (Homo sapiens) (UniProt P10721); experiment: Inhibition of human c-Kit at 18.6 nM by HotSpot assay relative to control
Mast/stem cell growth factor receptor Kit (Homo sapiens), sequence (P10721 whole entry): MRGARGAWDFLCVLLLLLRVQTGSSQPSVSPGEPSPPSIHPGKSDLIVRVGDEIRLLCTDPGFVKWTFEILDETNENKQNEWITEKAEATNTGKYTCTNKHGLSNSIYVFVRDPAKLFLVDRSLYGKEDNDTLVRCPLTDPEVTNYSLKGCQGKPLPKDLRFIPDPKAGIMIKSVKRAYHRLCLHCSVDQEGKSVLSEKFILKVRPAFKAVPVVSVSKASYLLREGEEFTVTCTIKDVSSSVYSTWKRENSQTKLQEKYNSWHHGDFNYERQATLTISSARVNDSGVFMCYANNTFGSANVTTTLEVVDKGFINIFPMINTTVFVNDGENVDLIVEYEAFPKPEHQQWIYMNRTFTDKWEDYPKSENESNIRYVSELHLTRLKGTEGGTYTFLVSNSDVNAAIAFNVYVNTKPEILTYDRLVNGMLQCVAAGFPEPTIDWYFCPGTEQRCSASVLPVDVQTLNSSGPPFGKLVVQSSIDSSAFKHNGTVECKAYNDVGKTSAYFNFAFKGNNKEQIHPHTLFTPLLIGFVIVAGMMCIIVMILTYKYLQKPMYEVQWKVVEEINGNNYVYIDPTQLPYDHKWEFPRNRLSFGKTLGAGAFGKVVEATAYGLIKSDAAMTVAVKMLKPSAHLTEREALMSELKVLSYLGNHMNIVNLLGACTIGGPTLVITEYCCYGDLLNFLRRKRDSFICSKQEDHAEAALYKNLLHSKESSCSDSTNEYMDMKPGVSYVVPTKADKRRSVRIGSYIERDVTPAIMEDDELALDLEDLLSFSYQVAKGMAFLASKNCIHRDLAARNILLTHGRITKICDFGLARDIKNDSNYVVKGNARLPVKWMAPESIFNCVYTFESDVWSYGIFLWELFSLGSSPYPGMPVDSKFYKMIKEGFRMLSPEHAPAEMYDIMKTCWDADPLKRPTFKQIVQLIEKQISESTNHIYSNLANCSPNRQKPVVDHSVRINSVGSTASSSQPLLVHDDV

[5] = biological target: T2, Tyrosine-protein kinase TXK (Homo sapiens) (UniProt P42681); experiment: Inhibition of human TXK at 18.6 nM by HotSpot assay relative to control
T2 sequence (whole entry): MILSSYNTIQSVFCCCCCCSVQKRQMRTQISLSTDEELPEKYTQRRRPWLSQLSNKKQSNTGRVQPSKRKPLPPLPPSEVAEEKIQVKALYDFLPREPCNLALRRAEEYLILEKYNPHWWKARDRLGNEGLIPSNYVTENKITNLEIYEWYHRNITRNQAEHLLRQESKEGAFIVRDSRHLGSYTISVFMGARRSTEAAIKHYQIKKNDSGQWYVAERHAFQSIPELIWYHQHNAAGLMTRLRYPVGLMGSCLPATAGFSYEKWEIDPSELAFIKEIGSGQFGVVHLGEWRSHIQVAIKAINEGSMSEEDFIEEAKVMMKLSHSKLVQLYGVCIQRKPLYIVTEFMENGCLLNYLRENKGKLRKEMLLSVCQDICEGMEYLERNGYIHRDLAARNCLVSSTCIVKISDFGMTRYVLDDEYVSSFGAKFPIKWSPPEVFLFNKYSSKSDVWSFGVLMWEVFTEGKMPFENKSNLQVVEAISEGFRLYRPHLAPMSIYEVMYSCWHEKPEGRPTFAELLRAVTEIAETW

[6] = biological target: T3, Tyrosine-protein kinase receptor TYRO3 (Homo sapiens) (UniProt Q06418); experiment: Inhibition of human SKY at 18.6 nM by HotSpot assay relative to control
T3 sequence (whole entry): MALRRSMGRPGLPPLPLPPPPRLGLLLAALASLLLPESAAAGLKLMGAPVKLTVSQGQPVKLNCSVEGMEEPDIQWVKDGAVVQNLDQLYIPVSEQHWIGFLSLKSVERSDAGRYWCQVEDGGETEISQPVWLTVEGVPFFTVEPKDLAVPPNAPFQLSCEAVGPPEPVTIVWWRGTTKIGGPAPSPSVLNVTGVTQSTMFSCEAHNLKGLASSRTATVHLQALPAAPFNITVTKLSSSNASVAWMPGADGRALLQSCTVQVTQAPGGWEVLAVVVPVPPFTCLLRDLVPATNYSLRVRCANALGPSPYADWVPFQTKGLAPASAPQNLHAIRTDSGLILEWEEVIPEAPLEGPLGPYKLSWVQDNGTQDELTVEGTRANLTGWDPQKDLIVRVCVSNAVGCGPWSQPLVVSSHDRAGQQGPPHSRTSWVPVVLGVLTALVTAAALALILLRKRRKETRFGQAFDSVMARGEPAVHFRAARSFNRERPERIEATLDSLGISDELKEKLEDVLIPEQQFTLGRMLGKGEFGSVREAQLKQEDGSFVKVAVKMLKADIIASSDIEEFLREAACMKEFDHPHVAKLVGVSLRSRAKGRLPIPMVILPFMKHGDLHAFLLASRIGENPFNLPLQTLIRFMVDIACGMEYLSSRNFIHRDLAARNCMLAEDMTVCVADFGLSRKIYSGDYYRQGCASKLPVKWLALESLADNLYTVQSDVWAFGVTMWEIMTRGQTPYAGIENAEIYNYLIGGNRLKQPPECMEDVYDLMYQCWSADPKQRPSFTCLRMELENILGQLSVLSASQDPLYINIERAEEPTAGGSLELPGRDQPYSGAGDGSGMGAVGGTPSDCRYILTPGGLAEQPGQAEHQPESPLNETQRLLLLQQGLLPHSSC

[7] = biological target: Mitogen-activated protein kinase kinase kinase 10 (Homo sapiens) (UniProt Q02779); experiment: Inhibition of human MAP3K10 at 18.6 nM by HotSpot assay relative to control
[8] = biological target: Leukocyte tyrosine kinase receptor (Homo sapiens) (UniProt P29376); experiment: Inhibition of human LTK at 18.6 nM by HotSpot assay relative to control
[9] = biological target: CDK1/Cyclin A (Homo sapiens) (UniProt P06493+P20248); experiment: Inhibition of human CDK1/cyclin A at 18.6 nM by HotSpot assay relative to control; assay type: protein-complex assay
[10] = biological target: Tyrosine-protein kinase BTK (Homo sapiens) (UniProt Q06187); experiment: Inhibition of human BTK at 1.82 nM by HotSpot assay relative to control
Tyrosine-protein kinase BTK (Homo sapiens), sequence (Q06187 whole entry): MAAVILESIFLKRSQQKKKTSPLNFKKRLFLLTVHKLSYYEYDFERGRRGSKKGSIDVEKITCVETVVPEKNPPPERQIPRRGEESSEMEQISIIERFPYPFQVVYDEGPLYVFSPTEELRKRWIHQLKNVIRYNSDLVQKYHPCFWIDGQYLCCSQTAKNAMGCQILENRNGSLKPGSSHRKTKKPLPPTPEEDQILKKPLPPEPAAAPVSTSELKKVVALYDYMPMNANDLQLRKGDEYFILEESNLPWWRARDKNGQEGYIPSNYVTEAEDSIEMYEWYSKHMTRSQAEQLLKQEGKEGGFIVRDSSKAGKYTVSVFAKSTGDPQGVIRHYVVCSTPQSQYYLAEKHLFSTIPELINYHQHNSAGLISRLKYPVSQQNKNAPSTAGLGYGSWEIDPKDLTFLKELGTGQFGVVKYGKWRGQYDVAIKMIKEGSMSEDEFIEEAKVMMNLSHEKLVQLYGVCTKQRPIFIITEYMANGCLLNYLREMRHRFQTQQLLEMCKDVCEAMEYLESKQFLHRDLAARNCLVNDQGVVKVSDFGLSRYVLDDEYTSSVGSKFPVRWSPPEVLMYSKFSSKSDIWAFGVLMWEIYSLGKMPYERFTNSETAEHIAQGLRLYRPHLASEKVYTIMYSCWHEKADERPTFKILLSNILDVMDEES

[11] = biological target: Tyrosine-protein kinase FRK (Homo sapiens) (UniProt P42685); experiment: Inhibition of human FRK at 1.82 nM by HotSpot assay relative to control
Tyrosine-protein kinase FRK (Homo sapiens), sequence (P42685 whole entry): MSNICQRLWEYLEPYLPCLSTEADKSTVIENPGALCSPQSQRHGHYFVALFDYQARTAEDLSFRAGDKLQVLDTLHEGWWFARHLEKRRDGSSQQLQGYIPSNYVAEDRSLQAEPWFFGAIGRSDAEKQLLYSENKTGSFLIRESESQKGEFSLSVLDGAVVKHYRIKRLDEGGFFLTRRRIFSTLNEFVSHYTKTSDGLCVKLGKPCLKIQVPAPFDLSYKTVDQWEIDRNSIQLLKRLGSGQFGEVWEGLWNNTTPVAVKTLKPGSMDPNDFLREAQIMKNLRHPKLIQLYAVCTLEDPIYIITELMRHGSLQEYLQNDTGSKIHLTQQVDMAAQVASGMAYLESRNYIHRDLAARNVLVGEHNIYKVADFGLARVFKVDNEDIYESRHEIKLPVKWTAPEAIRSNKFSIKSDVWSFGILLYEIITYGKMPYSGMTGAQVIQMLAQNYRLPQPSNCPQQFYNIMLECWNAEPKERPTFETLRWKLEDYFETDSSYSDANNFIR

[12] = biological target: Mitogen-activated protein kinase kinase kinase 20 (Homo sapiens) (UniProt Q9NYL2); experiment: Inhibition of human MLTK at 1.82 nM by HotSpot assay relative to control
Mitogen-activated protein kinase kinase kinase 20 (Homo sapiens), sequence (Q9NYL2 2-800 limits assumed): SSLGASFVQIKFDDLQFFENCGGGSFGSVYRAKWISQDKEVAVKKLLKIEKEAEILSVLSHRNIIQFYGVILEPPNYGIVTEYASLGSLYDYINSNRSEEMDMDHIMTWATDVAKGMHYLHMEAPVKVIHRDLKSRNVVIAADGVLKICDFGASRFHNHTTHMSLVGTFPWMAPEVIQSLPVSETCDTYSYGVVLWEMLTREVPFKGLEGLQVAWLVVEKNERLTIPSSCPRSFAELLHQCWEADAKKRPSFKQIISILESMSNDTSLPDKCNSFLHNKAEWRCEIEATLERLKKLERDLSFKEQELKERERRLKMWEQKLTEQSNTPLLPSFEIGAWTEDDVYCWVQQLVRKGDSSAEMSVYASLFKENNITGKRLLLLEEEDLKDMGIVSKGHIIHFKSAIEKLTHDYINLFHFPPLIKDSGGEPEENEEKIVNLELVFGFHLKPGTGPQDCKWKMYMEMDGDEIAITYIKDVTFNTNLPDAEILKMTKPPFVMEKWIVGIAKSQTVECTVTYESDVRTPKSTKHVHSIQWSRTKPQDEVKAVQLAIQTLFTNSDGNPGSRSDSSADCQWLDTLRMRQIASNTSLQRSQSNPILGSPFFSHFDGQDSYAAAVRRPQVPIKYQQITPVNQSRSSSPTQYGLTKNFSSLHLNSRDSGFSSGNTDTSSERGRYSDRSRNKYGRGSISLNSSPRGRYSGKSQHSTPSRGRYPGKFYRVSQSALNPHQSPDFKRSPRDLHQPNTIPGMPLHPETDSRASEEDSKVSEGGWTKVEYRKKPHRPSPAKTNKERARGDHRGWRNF

[13] = biological target: Protein kinase C gamma type (Homo sapiens) (UniProt P05129); experiment: Inhibition of human PKCg at 1.82 nM by HotSpot assay relative to control
[14] = biological target: Calcium/calmodulin-dependent protein kinase type 1 (Homo sapiens) (UniProt Q14012); experiment: Inhibition of human CAMK1a at 1.82 nM by HotSpot assay relative to control
Calcium/calmodulin-dependent protein kinase type 1 (Homo sapiens), sequence (Q14012 whole entry, looked up): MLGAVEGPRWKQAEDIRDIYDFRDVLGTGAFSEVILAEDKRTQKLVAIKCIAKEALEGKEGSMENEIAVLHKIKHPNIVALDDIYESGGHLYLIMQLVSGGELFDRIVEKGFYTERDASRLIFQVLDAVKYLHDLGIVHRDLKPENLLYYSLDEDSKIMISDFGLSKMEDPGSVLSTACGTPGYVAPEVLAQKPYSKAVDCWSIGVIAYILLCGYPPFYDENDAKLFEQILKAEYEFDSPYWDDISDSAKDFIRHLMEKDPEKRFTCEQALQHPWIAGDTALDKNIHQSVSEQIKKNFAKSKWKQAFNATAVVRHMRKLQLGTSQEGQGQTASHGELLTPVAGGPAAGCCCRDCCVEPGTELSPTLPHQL

[15] = biological target: Leucine-rich repeat serine/threonine-protein kinase 2 (Homo sapiens) (UniProt Q5S007); experiment: Inhibition of human LRRK2 at 1.82 nM by HotSpot assay relative to control
[16] = biological target: Ephrin type-A receptor 5 (Homo sapiens) (UniProt P54756); experiment: Inhibition of human EPHA5 at 1.82 nM by HotSpot assay relative to control
Ephrin type-A receptor 5 (Homo sapiens), sequence (P54756 whole entry): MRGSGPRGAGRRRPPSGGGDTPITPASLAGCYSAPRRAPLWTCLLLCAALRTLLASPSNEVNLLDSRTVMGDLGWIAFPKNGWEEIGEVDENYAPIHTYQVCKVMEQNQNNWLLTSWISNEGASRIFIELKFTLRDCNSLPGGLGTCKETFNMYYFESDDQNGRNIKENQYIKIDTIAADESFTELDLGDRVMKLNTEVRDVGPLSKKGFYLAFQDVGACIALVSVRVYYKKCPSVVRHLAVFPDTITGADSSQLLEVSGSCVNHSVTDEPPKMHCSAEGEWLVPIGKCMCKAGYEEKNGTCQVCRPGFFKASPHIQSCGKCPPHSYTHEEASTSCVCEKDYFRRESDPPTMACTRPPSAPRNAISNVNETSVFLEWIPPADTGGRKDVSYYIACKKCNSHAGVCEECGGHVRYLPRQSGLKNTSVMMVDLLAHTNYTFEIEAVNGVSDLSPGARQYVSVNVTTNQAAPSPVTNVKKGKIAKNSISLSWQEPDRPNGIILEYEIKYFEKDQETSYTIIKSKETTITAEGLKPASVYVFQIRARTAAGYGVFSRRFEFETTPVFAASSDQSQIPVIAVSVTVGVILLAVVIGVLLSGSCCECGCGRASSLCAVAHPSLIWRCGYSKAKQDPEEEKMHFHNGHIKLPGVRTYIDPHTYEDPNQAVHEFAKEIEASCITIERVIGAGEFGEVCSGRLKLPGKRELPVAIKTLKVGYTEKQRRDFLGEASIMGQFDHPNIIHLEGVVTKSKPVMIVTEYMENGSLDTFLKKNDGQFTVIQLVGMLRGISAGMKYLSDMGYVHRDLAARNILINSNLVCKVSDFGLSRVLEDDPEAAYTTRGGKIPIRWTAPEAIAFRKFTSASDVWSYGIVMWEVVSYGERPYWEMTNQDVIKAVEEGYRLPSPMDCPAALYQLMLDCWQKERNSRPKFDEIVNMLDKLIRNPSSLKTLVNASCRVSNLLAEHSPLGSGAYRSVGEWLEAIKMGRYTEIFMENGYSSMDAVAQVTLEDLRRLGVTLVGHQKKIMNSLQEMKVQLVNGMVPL

inhibition [1] [%]	inhibition [2] [%]	inhibition [3] [%]	inhibition [4] [%]	inhibition [5] [%]	inhibition [6] [%]	inhibition [7] [%]	inhibition [8] [%]	inhibition [9] [%]	inhibition [10] [%]	inhibition [11] [%]	inhibition [12] [%]	inhibition [13] [%]	inhibition [14] [%]	inhibition [15] [%]	inhibition [16] [%]	SMILES
8.57	2.47	1.65	2.65	-8.77	1.42	-0.06	-0.44	1.16								C[C@]1(O)C[C@@H](c2nc(-c3ccc4ccc(-c5ccccc5)nc4c3)c3c(N)nccn32)C1
									4.42	0.97	2.09	-7.52	2.2	-6.63	-1.69	C[C@@]1(C(=O)Nc2ccc(F)nc2)CCCN1c1nc(Nc2cc(C3CC3)n[nH]2)c2cccn2n1
